Test results: ChEMBL document CHEMBL5042533, “Structural Optimization and Structure-Activity Relationship Studies of 6,6-Dimethyl-4-(phenylamino)-6H-pyrimido[5,4-b][1,4]oxazin-7(8H)-one Derivatives as A New Class of Potent Inhibitors of Pan-Trk and Their Drug-Resistant Mutants” (J Med Chem, 2022)

Tests used:
[1] = target: BDNF/NT-3 growth factors receptor (Homo sapiens, UniProt Q16620); assay: Inhibition of wild type TrkB (unknown origin) using poly(Glu: Tyr) as substrate preincubated for 15 mins followed by substrate addition and further incubated for 30 mins in presence of [gamma-33P]ATP by scintillation counting method
Sequence of BDNF/NT-3 growth factors receptor (Q16620 whole entry): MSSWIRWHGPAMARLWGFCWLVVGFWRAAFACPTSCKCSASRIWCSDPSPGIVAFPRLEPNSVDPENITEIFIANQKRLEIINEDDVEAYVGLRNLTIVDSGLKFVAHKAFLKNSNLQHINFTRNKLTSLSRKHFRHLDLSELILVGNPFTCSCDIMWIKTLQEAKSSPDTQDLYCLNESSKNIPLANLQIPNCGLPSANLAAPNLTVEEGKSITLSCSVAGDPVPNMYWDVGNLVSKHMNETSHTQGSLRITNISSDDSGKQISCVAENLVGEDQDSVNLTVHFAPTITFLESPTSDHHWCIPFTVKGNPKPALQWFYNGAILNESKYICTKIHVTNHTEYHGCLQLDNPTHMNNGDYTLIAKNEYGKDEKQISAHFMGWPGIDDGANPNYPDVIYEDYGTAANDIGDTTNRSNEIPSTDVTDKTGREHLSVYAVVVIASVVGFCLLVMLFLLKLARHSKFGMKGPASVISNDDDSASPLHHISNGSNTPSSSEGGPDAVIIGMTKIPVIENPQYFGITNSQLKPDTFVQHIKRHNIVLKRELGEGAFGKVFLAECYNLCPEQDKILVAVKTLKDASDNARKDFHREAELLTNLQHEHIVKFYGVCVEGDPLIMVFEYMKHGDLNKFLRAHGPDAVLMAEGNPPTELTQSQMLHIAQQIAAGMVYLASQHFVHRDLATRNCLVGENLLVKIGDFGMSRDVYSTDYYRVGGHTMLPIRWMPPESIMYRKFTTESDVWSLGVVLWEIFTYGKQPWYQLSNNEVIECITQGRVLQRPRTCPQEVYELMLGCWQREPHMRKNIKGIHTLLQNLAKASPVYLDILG

[2] = tested on: BaF3; assay: cells; conditions: Mus musculus
Description: Cytotoxicity against mouse BaF3 cells harboring TEL fused TrkC G613R mutant assessed as inhibition of cell growth by MTT assay

[3] = target: High affinity nerve growth factor receptor (Homo sapiens, UniProt P04629); assay: Inhibition of wild type TrkA (unknown origin) using poly(Glu: Tyr) as substrate preincubated for 15 mins followed by substrate addition and further incubated for 30 mins in presence of [gamma-33P]ATP by scintillation counting method
Sequence of High affinity nerve growth factor receptor (P04629 whole entry): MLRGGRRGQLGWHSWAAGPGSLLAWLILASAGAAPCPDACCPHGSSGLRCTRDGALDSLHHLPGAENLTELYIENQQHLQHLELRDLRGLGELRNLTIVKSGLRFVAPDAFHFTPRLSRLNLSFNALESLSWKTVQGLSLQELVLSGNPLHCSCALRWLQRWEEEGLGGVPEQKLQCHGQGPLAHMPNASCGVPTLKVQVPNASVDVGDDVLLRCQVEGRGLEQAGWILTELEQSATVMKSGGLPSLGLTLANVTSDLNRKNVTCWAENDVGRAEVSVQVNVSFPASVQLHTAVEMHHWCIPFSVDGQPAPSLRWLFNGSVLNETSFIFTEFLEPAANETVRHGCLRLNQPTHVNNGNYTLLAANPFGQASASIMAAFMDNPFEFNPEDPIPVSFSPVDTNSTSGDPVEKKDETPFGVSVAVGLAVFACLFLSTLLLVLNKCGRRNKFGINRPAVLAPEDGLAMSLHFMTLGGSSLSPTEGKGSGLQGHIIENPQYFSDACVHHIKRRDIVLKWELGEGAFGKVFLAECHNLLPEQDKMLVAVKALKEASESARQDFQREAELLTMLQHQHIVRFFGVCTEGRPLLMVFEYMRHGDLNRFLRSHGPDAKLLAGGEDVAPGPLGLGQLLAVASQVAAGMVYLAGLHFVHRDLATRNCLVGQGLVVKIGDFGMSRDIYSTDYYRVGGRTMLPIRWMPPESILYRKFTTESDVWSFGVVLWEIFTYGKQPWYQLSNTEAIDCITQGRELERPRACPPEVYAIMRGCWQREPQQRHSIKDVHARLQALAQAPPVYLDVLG

[4] = in vitro; conditions: mouse, BaF3 cells
Description: Cytotoxicity against mouse BaF3 assessed as inhibition of cell growth incubated for 3 days by CCK-8 assay

[5] = tested on: BaF3; assay: cells; conditions: Mus musculus, BaF3, 72 h
Description: Cytotoxicity against mouse BaF3 cells expressing CD74 fused TrkA assessed as inhibition of cell growth incubated for 3 days by CCK-8 assay

[6] = tested on: BaF3; assay: cells; conditions: Mus musculus, BaF3, 72 h; remark: listed apart in the source
Description: Cytotoxicity against mouse BaF3 cells expressing TEL fused TrkC G623R assessed as inhibition of cell growth incubated for 3 days by CCK-8 assay

[7] = tested on: BaF3; assay: Cytotoxicity against mouse BaF3 cells expressing LMNA fused TrkA F589L mutant assessed as inhibition of cell growth incubated for 3 days by CCK-8 assay; format: functional, cell-based; conditions: BaF3, 72 h
[8] = cells; conditions: Homo sapiens, KM12-Luc, 72 h
Description: Cytotoxicity against human KM12-Luc cells expressing TPM3 fused TrkA assessed as inhibition of cell growth incubated for 3 days by CCK-8 assay

[9] = tested on: BaF3; assay: cells; conditions: Mus musculus, BaF3, 72 h; remark: listed apart in the source
Description: Cytotoxicity against mouse BaF3 cells expressing TEL fused TrkA assessed as inhibition of cell growth incubated for 3 days by CCK-8 assay

[10] = tested on: BaF3; assay: cells; conditions: Mus musculus, BaF3, 72 h; remark: listed apart in the source
Description: Cytotoxicity against mouse BaF3 cells expressing LMNA fused TrkA G667S mutant assessed as inhibition of cell growth incubated for 3 days by CCK-8 assay

[11] = tested on: BaF3; assay: cells; conditions: Mus musculus, BaF3, 72 h; remark: listed apart in the source
Description: Cytotoxicity against mouse BaF3 cells expressing TEL fused TrkC G696C assessed as inhibition of cell growth incubated for 3 days by CCK-8 assay

[12] = tested on: BaF3; assay: cells; conditions: Mus musculus, BaF3, 72 h; remark: listed apart in the source
[13] = tested on: BaF3; assay: cells; conditions: Mus musculus, BaF3, 72 h; remark: listed apart in the source
Description: Cytotoxicity against mouse BaF3 cells expressing TEL fused TrkC assessed as inhibition of cell growth incubated for 3 days by CCK-8 assay

[14] = tested on: BaF3; assay: cells; conditions: Mus musculus, BaF3, 72 h; remark: listed apart in the source

Compound	IC50 [1] [nM]	IC50 [2] [nM]	IC50 [3] [nM]	also measured
CC1(C)Oc2c(ncnc2Nc2cccc(NC(=O)Nc3cc(C(C)(C)C)nn3-c3ccccc3)c2)NC1=O	342	> 10000	–	–
CSc1cc(Nc2ncnc3c2OC(C)(C)C(=O)N3)ccc1NC(=O)Nc1cc(C(C)(C)C)nn1-c1ccccc1	106	230	89	–
Cc1cc(NC(=O)Nc2cc(C(C)(C)C)nn2-c2cccc(F)c2)ccc1Nc1ncnc2c1OC(C)(C)C(=O)N2	14	1140	13	–
CC1(C)Oc2c(ncnc2Nc2ccc(NC(=O)Nc3cc(C(C)(C)C)nn3-c3ccccc3)c(C(F)(F)F)c2)NC1=O	182	3900	149	–
Cc1cc(NC(=O)Nc2cc(C3CC3)nn2-c2ccccc2)ccc1Nc1ncnc2c1OC(C)(C)C(=O)N2	10	2010	23	–
COc1cc(Nc2ncnc3c2OC(C)(C)C(=O)N3)ccc1NC(=O)Nc1cc(C(C)(C)C)nn1-c1ccccc1	10	978	38	–
Cc1cc(NC(=O)Nc2cc(-c3ccccc3)nn2-c2ccccc2)ccc1Nc1ncnc2c1OC(C)(C)C(=O)N2	171	1900	38	–
Cc1cc(NC(=O)Nc2cc(C(C)(C)C)nn2-c2ccc3ccccc3c2)ccc1Nc1ncnc2c1OC(C)(C)C(=O)N2	245	> 10000	41	–
Cc1cc(NC(=O)Nc2cc(C(C)(C)C)nn2-c2ccc(C(F)(F)F)cc2)ccc1Nc1ncnc2c1OC(C)(C)C(=O)N2	–	86	–	IC50 at 3 days [4]: > 10000 nM; IC50 [5]: 2 nM; IC50 [6]: 86 nM; IC50 [7]: 13 nM; IC50 [8]: 13 nM; IC50 [9]: 2 nM; IC50 [10]: 10 nM; IC50 [11]: 3 nM; IC50 [12]: 2 nM
Cc1cc(NC(=O)Nc2cc(C(C)(C)C)nn2-c2ccc(F)cc2)ccc1Nc1ncnc2c1OC(C)(C)C(=O)N2	12	245	30	–
O=C(Nc1cnn2ccc(N3CCC[C@@H]3c3cc(F)ccc3F)nc12)N1CC[C@H](O)C1 [LAROTRECTINIB]	–	–	–	IC50 at 3 days [4]: 3570 nM; IC50 [5]: 1 nM; IC50 [6]: 1490 nM; IC50 [13]: 59 nM; IC50 [7]: 547 nM; IC50 [8]: 11 nM; IC50 [9]: 11 nM; IC50 [10]: 321 nM; IC50 [11]: 586 nM; IC50 [12]: 1260 nM; IC50 [14]: 4060 nM
CC1(C)Oc2c(ncnc2Nc2ccc(NC(=O)Nc3cc(C(C)(C)C)nn3C3CCCCC3)cc2)NC1=O	228	1560	344	–
CC1(C)Oc2c(ncnc2Nc2ccc(NC(=O)Nc3cc(C(C)(C)C)nn3-c3ccccc3)cc2)NC1=O	21	396	35	–
Cc1cc(NC(=O)Nc2cc(C(C)(C)C)nn2-c2ccccc2)ccc1Nc1ncnc2c1OC(C)(C)C(=O)N2	–	51	13	IC50 at 3 days [4]: > 10000 nM; IC50 [5]: 5 nM; IC50 [6]: 51 nM; IC50 [13]: 39 nM; IC50 [7]: 19 nM; IC50 [8]: 21 nM; IC50 [9]: 15 nM; IC50 [10]: 34 nM; IC50 [12]: 2 nM; IC50 [14]: 151 nM
Cc1cc(NC(=O)Nc2cc(C(C)(C)C)nn2-c2ccc(OC(F)(F)F)cc2)ccc1Nc1ncnc2c1OC(C)(C)C(=O)N2	40	86	46	–
COc1cc(NC(=O)Nc2cc(C(C)(C)C)nn2-c2ccccc2)ccc1Nc1ncnc2c1OC(C)(C)C(=O)N2	123	9290	50	–
Cc1cc(NC(=O)Nc2cc(C(C)(C)C)nn2-c2c(F)c(F)c(F)c(F)c2F)ccc1Nc1ncnc2c1OC(C)(C)C(=O)N2	42	740	52	–
Cc1cc(NC(=O)Nc2cc(C(C)(C)C)nn2-c2ccc(F)c(F)c2)ccc1Nc1ncnc2c1OC(C)(C)C(=O)N2	19	34	9	IC50 at 3 days [4]: > 10000 nM; IC50 [5]: 5 nM; IC50 [6]: 34 nM; IC50 [13]: 25 nM; IC50 [7]: 10 nM; IC50 [8]: 8 nM; IC50 [9]: 2 nM; IC50 [10]: 14 nM; IC50 [11]: 2 nM; IC50 [12]: 1 nM; IC50 [14]: 82 nM
CC1(C)Oc2c(ncnc2Nc2ccc(NC(=O)Nc3cc(C(C)(C)C)nn3-c3ccccc3)c(F)c2)NC1=O	38	978	81	–
Cc1cc(NC(=O)Nc2cc(C(C)(C)C)nn2-c2cccnc2)ccc1Nc1ncnc2c1OC(C)(C)C(=O)N2	22	709	14	–
Cc1ccc(-n2nc(C(C)(C)C)cc2NC(=O)Nc2ccc(Nc3ncnc4c3OC(C)(C)C(=O)N4)c(C)c2)cc1	18	58	22	IC50 at 3 days [4]: 2990 nM; IC50 [5]: 5 nM; IC50 [6]: 58 nM; IC50 [13]: 13 nM; IC50 [7]: 4 nM; IC50 [8]: 6 nM; IC50 [9]: 1 nM; IC50 [10]: 4 nM; IC50 [11]: 2 nM; IC50 [12]: 1 nM; IC50 [14]: 31 nM
Cc1cc(Nc2ncnc3c2OC(C)(C)C(=O)N3)ccc1NC(=O)Nc1cc(C(C)(C)C)nn1-c1ccccc1	88	6040	127	–
Cc1cc(NC(=O)Nc2cc(C(C)(C)C)nn2-c2ccccc2F)ccc1Nc1ncnc2c1OC(C)(C)C(=O)N2	15	3270	20	–
CC1(C)Oc2c(ncnc2Nc2ccc(NC(=O)Nc3cc(C(C)(C)C)nn3-c3ccccc3)c3ccccc23)NC1=O	88	382	87	–

Continued, in another order:

IC50 [1] [nM]	IC50 [2] [nM]	IC50 [3] [nM]	Compound	also measured
> 10000	–	> 10000	CC1(C)Oc2c(ncnc2Nc2ccc(NC(=O)Nc3cccc(F)c3)cc2)NC1=O	–
> 10000	–	> 10000	CCNC(=O)Nc1ccc(Nc2ncnc3c2OC(C)(C)C(=O)N3)cc1	–
202	5080	100	CC1(C)Oc2c(ncnc2Nc2ccc(NC(=O)Nc3cc(C(F)(F)F)cc(C(F)(F)F)c3)cc2)NC1=O	–
> 10000	> 10000	> 10000	CC(C)n1nc(C(C)(C)C)cc1NC(=O)Nc1ccc(Nc2ncnc3c2OC(C)(C)C(=O)N3)cc1	–
> 10000	–	> 10000	CC1(C)Oc2c(ncnc2Nc2ccc(NC(=O)NC3CCCCC3)cc2)NC1=O	–
1400	> 10000	6200	CC1(C)Oc2c(ncnc2Nc2ccc(NC(=O)Nc3cc(C(C)(C)C)nn3C(C)(C)C)cc2)NC1=O	–
48	6520	111	CC1(C)Oc2c(ncnc2Nc2ccc(NC(=O)Nc3cc(C(C)(C)C)no3)cc2)NC1=O	–
33	3760	156	CC1(C)Oc2c(ncnc2Nc2ccc(NC(=O)Nc3cc(C(C)(C)C)on3)cc2)NC1=O	–
> 10000	–	> 10000	CC(C)(C)NC(=O)Nc1ccc(Nc2ncnc3c2OC(C)(C)C(=O)N3)cc1	–
> 10000	–	> 10000	CC1(C)Oc2c(ncnc2Nc2ccc(NC(=O)Nc3ccc(C#N)cc3)cc2)NC1=O	–
> 10000	–	> 10000	Cc1ccc(NC(=O)Nc2ccc(Nc3ncnc4c3OC(C)(C)C(=O)N4)cc2)cc1	–
> 10000	–	> 10000	CC1(C)Oc2c(ncnc2Nc2ccc(NC(=O)Nc3ccc(F)c(F)c3)cc2)NC1=O	–
17	4020	–	CC1(C)Oc2c(ncnc2Nc2ccc(NC(=O)Nc3cccc(C(F)(F)F)c3)cc2)NC1=O	–
> 10000	–	> 10000	Cn1nc(C(C)(C)C)cc1NC(=O)Nc1ccc(Nc2ncnc3c2OC(C)(C)C(=O)N3)cc1	–
> 10000	–	> 10000	C=CCNC(=O)Nc1ccc(Nc2ncnc3c2OC(C)(C)C(=O)N3)cc1	–
> 10000	–	> 10000	CC1(C)Oc2c(ncnc2Nc2ccc(NC(=O)NC34C[C@H]5C[C@@H](C3)C[C@@H](C4)C5)cc2)NC1=O	–
381	1350	211	CC1(C)Oc2c(ncnc2Nc2ccc(NC(=O)Nc3ccc(Cl)c(C(F)(F)F)c3)cc2)NC1=O	–
